Here are results for five molecules from US20060276440A1, “Treatment of inflammatory disorders” (priority 2005, published 2006).

Common to all, as to type: cell-based, human
In one experiment the test system is OSM signaling. In words: […] 4A1 cell line (A549) OSM-stimulated luciferase reporter assay. The following applies: Homo sapiens, A549; 4A1 cell line; primary screen (Table 1); read-out: IC50, inhibition of OSM-stimulated (luciferase) reporter activity. As to the method: Cell line 4A1 was established in A549 cells (a human lung cancer cell line) using BV32, a vector that carries both the luciferase and GFP reporters. Assay development was performed to optimize the conditions of the OSM-response in the 4A1 […]® line.
Reporter activities of Sentinel® clones were measured using the Steady-Glo® Luciferase assay system (Promega, Madison, Wis.), according to the manufacturer's instructions, and were normalized to cell numbers based on nucleic acid quantification (CyQuant® cell proliferations assay, Molecular Probes/Invitrogen, Carlsbad, Calif.). In order to identify potential anti-inflammatory compounds, the OSM-responding Sentinel® clone 4A1 was used for a library screen of approximately 1800 compounds.
For orientation: Reporter assays use an easily measured gene product as a stand-in for the process of interest.

The test system of another experiment is MMP-13. In words: IL-1/OSM-stimulated pro-MMP-13 production in SW-1353 cells (ELISA). The following applies: Homo sapiens, SW1353; SW-1353; IL-1/OSM-stimulated; secondary screen (Example 2); read-out: IC50, inhibition of MMP-13 (pro-MMP-13) production. The text has this: To test the compounds identified in the preliminary reporter (luciferase) activity […]® line 4A1 screen for inhibition of OSM signaling in a more physiologically relevant environment, a human cell line involved in an inflammatory disease was adapted. The human cartilage cell line SW-1353 was selected.
In the human cartilage cell line SW-1353, while IL-1 is believed to activate expression of collagenases to a small degree and OSM is believed to have no effect on collagenase expression, a combination of IL-1 and OSM is believed to lead to a synergistic activation of collagenases to much higher levels (S. Cowell et al., Biochem J 331 (Pt 2), 453 (Apr. 15, 1998). Regulation of MMP-13 in SW-1353 cells is, therefore, believed to provide a biomarker which can be used to monitor IL-1/OSM-mediated signal transduction events in secondary assays.
(§1) The same supernatants of culture media used in the primary screen were assayed for IL-1/OSM-stimulated pro-MMP-13 production and MMP-2 production by enzyme-linked immunosorbent assay (ELISA).
(§2) For matrix metalloproteinase (MMP) measures, SW1353 cells were grown to confluence in 24 well plates, washed in DMEM (with Ham's F12) and placed in 500 ul of serum free DMEM/F-12 with 0.2% lactalbumin hydrosylate with and without OsM/IL-1. After 24 hrs, supernatants were collected and the amounts of proMMP13, totalMMP2, and proMMP1 were measured using Quantikine® ELISA kit for human MMPs (R & D systems, Minneapolis, Minn.). All MMP measures were normalized to viable cell numbers based on a tetrazolium (MTS) colorimetric measure (Promega, Madison, Wis.).
(In general: An ELISA detects its analyte on a solid surface through an enzyme-linked reagent.)

In the next experiment the test system is MMP-2. In words: MMP-2 production in SW1353 cells (ELISA, control). The following applies: SW-1353; FIG. 5. As to the method: MMP-2 production can be used as control for the potential side-effects of compounds. This is because MMP-2 levels are not believed to change in response to IL-1/OSM.
as §1, §2
(§3) Multiple control assays were performed to investigate the selectivity of CA4 action. Matrix metalloproteinase-2 (MMP-2) production in SW1353 cells was tested. Mutation of MMP-2 causes a multicentric osteolysis and arthritis syndrome (Martignetti et al., Nat Genet 28, 261-265 (2001) the entire contents of which are incorporated herein by reference), and theoretically its expression should not be affected in treating RA. CA4 at approximately 110 nM had no effect on production of MMP-2 (FIG. 12E). An A549 Sentinel line that responded to TGF-β was then tested.

A further experiment relates to TGF-β. Description: A549 Sentinel line TGF-β-stimulated reporter activity. The following applies: inhibitor of TGF-β receptor, control. The procedure: as §3

“Also recorded” adds a separate entry of the source.

As to `CC(C)C1=CC2=CCC3[C@](C)(C(=O)O)CCC[C@@]3(C)[C@@H]2CC1` (stereo in doubt) [Abietic acid (2), abietic acid], the IC50 (as a rule, the concentration at which inhibition is half-maximal) in the experiment on OSM signaling is 0.012 µM; with MMP-13, 0.006 µM. Moreover, the “inhibitory effect on MMP-13 expression compared to MMP-2 expression” value in the experiment with MMP-2 was “greater inhibitory effects on MMP-13 expression compared to MMP-2 expression; also recorded: preferentially inhibit MMP-13 expression compared to MMP-2 expression”.
Consider `C=C(C)[C@H]1CC[C@@]2(C(=O)O)CC[C@@]3(C)[C@@H](CC[C@H]4[C@]5(C)CC[C@@H](O)C(C)(C)[C@H]5CC[C@@]43C)[C@H]12` (stereo in doubt) [Betulinic acid (9), betulinic acid], for which the IC50 in the experiment on OSM signaling was 3.3 µM; in the experiment with MMP-13, 0.6 µM. The “inhibitory effect on MMP-13 expression compared to MMP-2 expression” value in the experiment with MMP-2 was “greater inhibitory effects on MMP-13 expression compared to MMP-2 expression; also recorded: preferentially inhibit MMP-13 expression compared to MMP-2 expression”.
Regarding `CCc1oc2ccccc2c1C(=O)c1cc(Br)c(O)c(Br)c1` [Benzobromarone (8), (3,5-dibromo-4-hydroxyphenyl)(2-ethylbenzofuran-3-yl)methanone], the IC50 in the experiment on OSM signaling was found to be 2.2 µM; with MMP-13, 0.4 µM. In the experiment with MMP-2, the “inhibitory effect on MMP-13 expression compared to MMP-2 expression” value is reported as “greater inhibitory effects on MMP-13 expression compared to MMP-2 expression; also recorded: preferentially inhibit MMP-13 expression compared to MMP-2 expression”.
`Cc1ccc(C(=O)Cn2c3c(sc2=N)CCCC3)cc1` [Pifithrine-alpha (12), 2-(2-imino-4,5,6,7-tetrahydrobenzothiazol-3-yl)-1-p-tolylethanone]: the IC50 with MMP-13 is 32 µM. In addition, in the experiment with MMP-2, the “inhibitory effect on MMP-13 expression compared to MMP-2 expression” value is reported as “greater inhibitory effects on MMP-13 expression compared to MMP-2 expression; also recorded: preferentially inhibit MMP-13 expression compared to MMP-2 expression”.
For the molecule `NC(=O)c1ccc(-c2nc(-c3ccc4c(c3)OCO4)c(-c3ccccn3)[nH]2)cc1` [SB431542, reference compound], the “effect on TGF-β-induced reporter activity” value in the experiment on TGF-β was “able to inhibit”.
